A value given as a limit tells only on which side of the number the result lay.

The term IC50 denotes the midpoint of a concentration-inhibition curve. Low values mean inhibition by little substance, high ones a need for much substance.

One test deals with A549. Put plainly: In vitro cytotoxic activity against human lung carcinoma A549 cell line. It counts as functional, cell-based.
The test system of a further test is SK-MEL-2. Put plainly: In vitro cytotoxic activity against human melanoma SK-MEL-2 cell line. Format: functional, cell-based.

Take `O=C1NC(c2ccccc2)CN1S(=O)(=O)c1ccc2c(c1)CCC2` (stereo not given): the IC50 with A549 was determined as 0.91 µM.

As for `Cc1ccc(S(=O)(=O)N2C(=O)NCC2c2ccc(Br)cc2)cc1` (stereo not given), the IC50 with SK-MEL-2 is 80 µM; in the test on A549, 67 µM.

In the case of `Cc1ccc(C2CNC(=O)N2S(=O)(=O)c2ccc3c(c2)CCC3)cc1` (stereo not given), the 50% inhibitory concentration (IC50) stood at 88.6 µM in the test with SK-MEL-2 and 90.3 µM with A549.

`Cc1ccc(C2CN(S(=O)(=O)c3ccc(C)cc3)C(=O)N2)cc1` (stereo not given): the IC50 with SK-MEL-2 and in the test on A549 was above 303 µM in each case.

For the compound `Cc1ccc(C2CNC(=O)N2S(=O)(=O)c2ccccc2)cc1` (stereo not given), the IC50 amounted to 144 µM in the test on SK-MEL-2 and 157 µM with A549.

`O=C1NC(c2ccc(Br)cc2)CN1S(=O)(=O)c1ccc(Cl)cc1` (stereo not given): the IC50 with SK-MEL-2 was 111 µM; in the test on A549, 161 µM.

`O=C1NC(c2ccccc2)CN1S(=O)(=O)c1ccccc1` (stereo not given): the IC50 amounted to 116 µM in the test on SK-MEL-2 and 145 µM in the test on A549.

Turning to `O=C1NC(c2ccc(Cl)cc2)CN1S(=O)(=O)c1ccc2c(c1)CCC2` (stereo not given), the half-maximal inhibitory concentration (IC50) in the test with SK-MEL-2 worked out at 64.3 µM; in the test with A549, 86.3 µM.

Turning to `Cc1ccc(C2CN(S(=O)(=O)c3ccc(Cl)cc3)C(=O)N2)cc1` (stereo not given), the IC50 in the test on SK-MEL-2 amounted to 123 µM; in the test on A549, 158 µM.

As to `Cc1ccc(C2CNC(=O)N2S(=O)(=O)c2ccc(C)cc2)cc1` (stereo not given), the values for the IC50 in the test with SK-MEL-2 and with A549 were 234 µM and above 303 µM, respectively.

Consider `O=C1NCC(c2ccc(Br)cc2)N1S(=O)(=O)c1ccc(Cl)cc1` (stereo not given), for which the IC50 worked out at 106 µM in the test on SK-MEL-2 and 84 µM with A549.

Consider `Cc1ccc(C2CN(S(=O)(=O)c3ccccc3)C(=O)N2)cc1` (stereo not given), for which the IC50 in the test with SK-MEL-2 and in the test on A549 was above 316 µM throughout.

For `O=C1NCC(c2ccc(Br)cc2)N1S(=O)(=O)c1ccc2c(c1)CCC2` (stereo not given), the IC50 was 119 µM in the test with SK-MEL-2 and above 237 µM in the test with A549.

Turning to `Cc1ccc(S(=O)(=O)N2CC(c3ccccc3)NC2=O)cc1` (stereo not given), the IC50 in the test on SK-MEL-2 turned out to be 2.53 µM; with A549, 12.5 µM.

Take `Cc1ccc(C2CN(S(=O)(=O)c3ccc4c(c3)CCC4)C(=O)N2)cc1` (stereo not given): the IC50 in the test on SK-MEL-2 was determined as 72.5 µM; with A549, 99.2 µM.

Take `O=C1NCC(c2ccc(Cl)cc2)N1S(=O)(=O)c1ccc2c(c1)CCC2` (stereo not given): the results for the IC50 in the test on SK-MEL-2 and in the test with A549 were 161 µM and above 265 µM, respectively.

With `O=C1NC(c2ccc(Br)cc2)CN1S(=O)(=O)c1ccc2c(c1)CCC2` (stereo not given), the results for the half-maximal inhibitory concentration (IC50) in the test on SK-MEL-2 and in the test with A549 were 32.6 µM and 33.9 µM, respectively.

Consider `Cc1ccc(S(=O)(=O)N2CC(c3ccc(Br)cc3)NC2=O)cc1` (stereo not given), for which the IC50 in the test on SK-MEL-2 and in the test on A549 was above 253 µM throughout.

In the case of `Cc1ccc(S(=O)(=O)N2C(=O)NCC2c2ccccc2)cc1` (stereo not given), the IC50 in the test with SK-MEL-2 and in the test on A549 was above 316 µM in each case.

In the case of `O=C1NC(c2ccccc2)CN1S(=O)(=O)c1ccc(Cl)cc1` (stereo not given), the IC50 in the test on SK-MEL-2 came out at 1.43 µM; with A549, 9.47 µM.

Turning to `Cc1ccc(C2CNC(=O)N2S(=O)(=O)c2ccc(Cl)cc2)cc1` (stereo not given), the IC50 in the test with SK-MEL-2 was 255 µM; in the test with A549 it was 266 µM.

For `O=C1NCC(c2ccccc2)N1S(=O)(=O)c1ccc2c(c1)CCC2` (stereo not given), the IC50 was 39 µM in the test with SK-MEL-2 and 58.5 µM with A549.

Turning to `O=C(Nc1ccc(Cl)cc1)NS(=O)(=O)c1ccc2c(c1)CCC2` [SULOFENUR], the IC50 turned out to be 12.9 µM with SK-MEL-2 and 11.3 µM in the test on A549.

The values are drawn from ChEMBL document CHEMBL1159151, “Synthesis and evaluation of cytotoxic activity of novel arylsulfonylimidazolidinones” (Bioorg Med Chem Lett, 1996).
